{"source": "paper PMC4810081", "about": "“Venetoclax (ABT-199) Might Act as a Perpetrator in Pharmacokinetic Drug–Drug Interactions” (Pharmaceutics, 2016)", "key": {"ABCC2": {"test_system": "ABCC2", "experiment": "Induction assay, ABCC2 mRNA by real-time RT-PCR in LS180 cells", "assay_type": "in vitro ADME, human", "conditions": "four days, 0.01–10 µM", "experimental": "(§1) LS180 cells. The human colon adenocarcinoma cell line LS180 (available at ATCC, Manassas, VA, USA) is one of the standard models for investigating pregnane X receptor (PXR) and aryl hydrocarbon receptor (AhR) mediated induction and was thus used for induction experiments. Cells were cultured under standard cell culture conditions with DMEM supplemented with 10% FCS, 2 mM of glutamine, 100 U/mL of penicillin, 100 µg/mL of streptomycin sulfate, and 0.1 mM of nonessential amino acids.\nFor the induction experiments, LS180 cells were seeded in 75 cm^2 culturing flasks and incubated for three days. […]\nRNA was isolated using the GenElute™ Mammalian Total RNA Miniprep Kit, and cDNA was synthesized with the RevertAid™ H Minus First Strand cDNA Synthesis Kit according to the manufacturer's instructions. mRNA expression was quantified by real-time RT-PCR with the LightCycler® 480 (Roche Applied Science, Mannheim, Germany) as described previously. […] Data were evaluated via calibrator-normalized relative quantification with efficiency correction using the LightCycler® 480 software version 1.5 (Roche Applied Science, Mannheim, Germany). […] The following target genes were quantified: CYP1A1, CYP1A2, CYP3A4, ABCB1, ABCC2, ABCG2, SLCO1B1 (coding for OATP1B1), UDP-glucuronosyltransferase 1A3 (UGT1A3), and UGT1A9."}, "P-gp [1]": {"test_system": "P-gp", "experiment": "P-gp inhibition, calcein assay in P388/dx cells", "assay_type": "in vitro ADME", "conditions": "mouse, P388/dx cells over-expressing murine mdr1a/b, probe calcein", "experimental": "P388 and P388/dx cells. For testing P-gp inhibition, the murine monocytic leukemia cell line P388/dx over-expressing murine mdr1a/b and the corresponding parental cell line P388 were used. Both cell lines were kindly provided by D. Ballinari (Pharmacia & Upjohn, Milano, Italy). The cells were cultured under standard cell culture conditions with an RPMI 1640 medium supplemented with 10% FCS, 2 mM of glutamine, […] of β-mercaptoethanol, 100 U/mL of penicillin, and 100 µg/mL of streptomycin sulfate. For maintaining P-gp expression, the culture medium for P388/dx was supplemented with 0.43 µM of doxorubicin. One day before the assay, both cell lines were fed with a doxorubicin-free culture medium.\nP-gp inhibition was assessed with the calcein assay in P388/dx cells as described previously. Inhibition of P-gp increases intracellular calcein fluorescence in these cells. Each venetoclax concentration (0.005–50 µM) was tested in octuplet, and the experiment was performed in quadruplicate."}, "MDCKII": {"test_system": "MDCKII", "experiment": "Growth inhibition assay in MDCKII cells", "assay_type": "cell-based", "conditions": "Canis lupus familiaris, MDCK-II; MDCKII parental cells", "text": "MDCKII cells. The transporter over-expressing cell lines MDCKII-MDR1 [5], MDCKII-MRP2 [6], and MDCKII-BCRP [7] and the corresponding parental cell line MDCKII were used to assess the sensitivity of cells with and without P-gp, multidrug resistance-associated protein 2 (MRP2/ABCC2), or BCRP expression. Moreover, MDCKII-BCRP cells were used to assess BCRP inhibition by venetoclax. MDCKII over-expressing cell lines were kindly provided by A. H. Schinkel and P. Borst (Amsterdam, The Netherlands). The parental cell line MDCKII (available at ATCC, Manassas, VA, USA) was used as a control. The cells were cultured in Dulbecco’s Modified Eagle’s Medium (DMEM) containing 10% FCS, 2 mM of glutamine, 100 U/mL of penicillin, and 100 µg/mL of streptomycin sulfate.\nGrowth inhibition assays in LS180 cells were conducted to determine suitable maximum concentrations for the induction assay without profound antiproliferative effects. Proliferation was quantified by crystal violet staining of the surviving cells as described previously. Each experiment was performed at least in triplicate with n = 8 wells for each concentration (0.1–100 µM). The IC20 for proliferation inhibition by venetoclax was 8.4 ± 1.0 µM; thus, the maximum concentration for the induction assay was set to 10 µM, ensuring that about 80% of the cells will survive. […]"}, "LS180 cells": {"test_system": "LS180 cells", "experiment": "Growth inhibition (proliferation) assay in LS180 cells", "assay_type": "cell-based", "conditions": "Homo sapiens, crystal violet staining", "experimental": "as §1\nGrowth inhibition assays in LS180 cells were conducted to determine suitable maximum concentrations for the induction assay without profound antiproliferative effects. Proliferation was quantified by crystal violet staining of the surviving cells as described previously. Each experiment was performed at least in triplicate with n = 8 wells for each concentration (0.1–100 µM). The IC20 for proliferation inhibition by venetoclax was 8.4 ± 1.0 µM; thus, the maximum concentration for the induction assay was set to 10 µM, ensuring that about 80% of the cells will survive."}, "P-gp [2]": {"test_system": "P-gp", "experiment": "Western blot of P-gp protein expression in LS180 cells", "assay_type": "in vitro ADME, human", "conditions": "four days, at 1 and 10 µM", "experimental": "For the induction experiments, LS180 cells were seeded in 75 cm^2 culturing flasks and incubated for three days. Cells were then treated with a culture medium containing venetoclax (0.01–10 µM) in quintuplicate for four consecutive days. Rifampicin (20 µM) served as a positive control for PXR-driven genes and culture medium as a negative control. All incubation solutions were adjusted to 0.02% DMSO. After harvesting, cells were split for RNA and protein extraction.\nTo exemplarily verify the effects of venetoclax on mRNA expression, protein expressions of P-gp and CYP1A2 were analyzed in triplicate by SDS polyacrylamide gel electrophoresis (SDS-PAGE) and Western blotting. In brief, cell lysates containing 20 µg protein were mixed with 5× sample buffer (containing Tris–HCl, SDS, DTT, bromophenol blue, and glycerol) and subjected to 10% SDS-PAGE. Afterwards, proteins were electrotransferred to nitrocellulose nitrate membranes. Blots were blocked by incubation for 20–40 min with 5% Slim-Fast® (w/v) in phosphate-buffered saline containing 0.1% Tween®20. […] Bands were visualized by enhanced chemiluminescence using the SuperSignal®West Pico Chemiluminescent Substrate Kit and recorded by FluorChem Q SA AlphaView Version 3.2.2, Cell Biosciences (Santa Clara, CA, USA)."}}, "data": [{"smiles": "CC1(C)CCC(CN2CCN(c3ccc(C(=O)NS(=O)(=O)c4ccc(NCC5CCOCC5)c([N+](=O)[O-])c4)c(Oc4cnc5[nH]ccc5c4)c3)CC2)=C(c2ccc(Cl)cc2)C1", "note": "[Venetoclax]", "values": [{"measurement": "mRNA expression of ABCC2", "setting": "ABCC2", "value": "unchanged"}, {"measurement": "IC50", "setting": "P-gp [1]", "value": "30 ± 3.7", "unit": "µM"}, {"measurement": "IC50", "setting": "MDCKII", "value": "15.2 ± 2.4", "unit": "µM"}, {"measurement": "IC20", "setting": "LS180 cells", "value": "8.4 ± 1", "unit": "µM"}, {"measurement": "P-gp protein expression", "setting": "P-gp [2]", "value": "suppression"}]}]}
